Tested on: sample strain of E. coli bacteria
Assay: Panel merge and MIC determination in microdroplets on oEWOD chip
Format: cell-based
Settings: gentamicin in tryptic soy broth (TSB) droplets merged with droplets of 1-3 bacteria; growth pattern observed within three hours of reducing the concentration
Protocol: Droplets were paired together so that the post-merge droplets were all roughly of uniform size. Every third droplet was labelled as a control and remained unpaired. The smaller droplets in this example contained the antibiotic gentamicin at a concentration of 500 ng/mL in tryptic soy broth (TSB), whilst each of the larger droplets contained 1-3 bacteria in TSB. […] Within three hours of reducing the concentration, a robust growth behaviour pattern was observed, allowing for a determination of the MIC. In this particular case, the MIC was determined to lie at approximately 300 pg/mL.

## gentamicin
  MIC: approximately 300 pg/mL

Source: patent publication US20230134003A1, “METHOD AND APPARATUS FOR CLINICAL TESTING” (Lightcast Discovery Ltd, priority 2019, published 2023)
